Experimental data taken from patent US20190248834A1, “ENDOMORPHIN-2, TETRAPEPTIDE DERIVATIVES THEREOF, AND USES THEREOF” (priority 2016, published 2019).
No end group written: not given here.

Assays:
[1] = system: extruded intervertebral cervical disc, pain and paresthesia; experiment: Example 40: painful extruded intervertebral cervical disc, subcutaneous injection; type: in vivo, human
Source text: Previous therapy undergone by the subject included epidural injections of corticosteroids. Within the past several months, the pain had intensified, along with a substantial degree of paresthesia and numbness of the fingers of both hands. […] Relief of pain and paresthesia lasted for 1-2 days. Thereafter, the pain and paresthesia returned.
About 1 week later, pain and paresthesia were negligible, but returned within 2-3 weeks. Such injections were repeated 3 times at approximately monthly intervals with the same beneficial results. However, pain and paresthesia were not cured, and recurring within 2-3 weeks.

[2] = system: sore site on the left lower gum; experiment: Example 38: analgesic effect on gum pain due to pressure from denture; type: in vivo, human
Description: […]. […] The dentures were removed and re-inserted 15 hours later. Within about 1 hour, soreness of the same area began to return and application of the above solution composition was repeated in the same way as the day before. All soreness again was alleviated within 5-10 seconds. The relief lasted again for about 7 hours.

[3] = system: pain caused by needling or pinching; experiment: Example 91: experimentally induced skin pain, intradermal and subcutaneous injection; type: in vivo, human; settings: 0.1% sterile aqueous solution pH 6.2, intradermally 0.1 ml and subcutaneously 0.2 ml
mu receptors = mu receptors (Mus musculus, UniProt P42866); settings: mouse brain; cited from earlier work
[4] = system: rat rostral ventrolateral medulla neurons; settings: in vitro; cited from earlier work
[5] = system: extruded intervertebral cervical disc, pain and paresthesia; experiment: Example 40: painful extruded intervertebral cervical disc, topical; type: in vivo, human
Source text: Previous therapy undergone by the subject included epidural injections of corticosteroids.

[6] = rats injected at 5-10 μg; cited from earlier work
adjuvant arthritis = settings: intraperitoneal injection; cited from earlier work
[7] = 0.5% (w/v) in WEP442, gauze under plastic film

mu receptors, sequence (P42866 whole entry): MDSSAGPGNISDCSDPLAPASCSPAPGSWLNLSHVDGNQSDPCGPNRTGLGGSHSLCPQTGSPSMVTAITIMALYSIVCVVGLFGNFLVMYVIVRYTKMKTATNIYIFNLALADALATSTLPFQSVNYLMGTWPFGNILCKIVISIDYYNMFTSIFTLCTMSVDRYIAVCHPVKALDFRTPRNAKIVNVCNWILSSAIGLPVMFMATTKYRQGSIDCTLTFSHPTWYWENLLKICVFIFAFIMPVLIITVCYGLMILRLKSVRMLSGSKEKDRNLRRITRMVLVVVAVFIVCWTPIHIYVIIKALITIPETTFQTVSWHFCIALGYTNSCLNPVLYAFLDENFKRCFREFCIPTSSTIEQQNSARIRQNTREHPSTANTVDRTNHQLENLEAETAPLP

With Tyr-Pro-Phe-Phe-NH2 (YPFF-NH2) the pain and paresthesia ([1]; 3 mg/ml sterile aqueous solution, subcutaneous, next day) was “diminished substantially”, the “time to return of pain and paresthesia” value ([1]; 3 mg/ml subcutaneous) was 2-3 weeks and the pain and paresthesia ([1]; 3 mg/ml subcutaneous, repeated after 24 hours, about 1 week later) was “negligible”. For the same substance, the duration of relief ([2]; 1% (w/v) in WEP442) was “about 7 hours”, the time to relief ([2]; 1% (w/v) in WEP442) was 5 to 10 s and the relief of soreness ([2]; 1% (w/v) in WEP442, applied to the sore gum area) was “all soreness was gone”. The “effect on pain caused by needling or pinching of injected sites” value [3] was “did not prevent pain”, the “affinity for mu receptors” value (mu receptors) was “very high affinity” and the “spontaneous discharge of the medullary neurons” value [4] was “significantly inhibited”. The “duration of relief of pain and paresthesia” value [5, 7] was 1 to 2 days, the “time to relief of symptoms” value [5, 7] was 8 h and the relief of symptoms ([5]; 0.5% (w/v) in WEP442, saturated gauze under plastic film over cervical vertebra 7) was “complete relief of symptoms”. The analgesic effects [6] was “exhibited analgesic effects” and the “effect on edema in rat paw assay” value (adjuvant arthritis) was “did not have any effect that significantly differed from the effect of the control group”.
